For the data set the following is noted: mark in second data column (bin 0%-50%); 1 mg per mL liver microsome protein, 1 μM, 37° C.; vs non-isotopically enriched compound.

For “N-(2-Hydroxy-2-(4-hydroxy-3-(hydroxymethyl)phenyl)ethyl)-6-(4-d3-phenyl-d8-butoxy)hexan-1-d2-aminium 1-hydroxy-2-naphthoate [Example 5]”, the “% increase of HLM degradation half-life” value is “+ (0%-50%)”.
